Measurements taken from publication PMC7026418, “The kinase polypharmacology landscape of clinical PARP inhibitors” (Scientific Reports, 2020).
Like-named read-outs stand apart in the source and are kept apart here.

Tests used:
Assay in all cases: biochemical
Set-up in all cases: DiscoveRx KINOMEscan active site-directed competition binding; percent of control kinase bound to immobilised ligand
BMPR1B = BMPR1B (Homo sapiens, UniProt O00238)
BRSK1 = molecular target: T1, BRSK1 (Homo sapiens, UniProt Q8TDC3)
T1 sequence (Q8TDC3 1-778): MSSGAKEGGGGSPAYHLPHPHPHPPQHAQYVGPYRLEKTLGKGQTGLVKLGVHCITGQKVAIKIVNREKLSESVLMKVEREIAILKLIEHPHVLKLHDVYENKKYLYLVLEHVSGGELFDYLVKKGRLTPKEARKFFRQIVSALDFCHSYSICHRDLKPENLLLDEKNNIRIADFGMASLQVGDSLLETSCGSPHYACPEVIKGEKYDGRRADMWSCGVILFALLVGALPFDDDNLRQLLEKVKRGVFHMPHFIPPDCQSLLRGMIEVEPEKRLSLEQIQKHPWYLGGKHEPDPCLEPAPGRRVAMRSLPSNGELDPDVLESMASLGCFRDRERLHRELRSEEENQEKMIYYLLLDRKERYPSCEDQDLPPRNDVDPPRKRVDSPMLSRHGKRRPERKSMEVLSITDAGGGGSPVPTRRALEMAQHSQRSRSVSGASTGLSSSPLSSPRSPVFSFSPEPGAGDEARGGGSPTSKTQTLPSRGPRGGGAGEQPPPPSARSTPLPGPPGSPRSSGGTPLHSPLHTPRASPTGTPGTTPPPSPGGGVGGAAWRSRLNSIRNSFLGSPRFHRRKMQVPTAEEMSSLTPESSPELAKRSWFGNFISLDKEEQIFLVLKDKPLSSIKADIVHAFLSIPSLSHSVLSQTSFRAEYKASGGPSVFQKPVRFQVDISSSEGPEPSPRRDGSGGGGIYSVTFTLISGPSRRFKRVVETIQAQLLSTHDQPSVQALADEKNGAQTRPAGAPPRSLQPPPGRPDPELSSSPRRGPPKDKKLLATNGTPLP

EPHA3 = molecular target: T2, EPHA3 (Homo sapiens, UniProt P29320)
T2 sequence (P29320 1-983): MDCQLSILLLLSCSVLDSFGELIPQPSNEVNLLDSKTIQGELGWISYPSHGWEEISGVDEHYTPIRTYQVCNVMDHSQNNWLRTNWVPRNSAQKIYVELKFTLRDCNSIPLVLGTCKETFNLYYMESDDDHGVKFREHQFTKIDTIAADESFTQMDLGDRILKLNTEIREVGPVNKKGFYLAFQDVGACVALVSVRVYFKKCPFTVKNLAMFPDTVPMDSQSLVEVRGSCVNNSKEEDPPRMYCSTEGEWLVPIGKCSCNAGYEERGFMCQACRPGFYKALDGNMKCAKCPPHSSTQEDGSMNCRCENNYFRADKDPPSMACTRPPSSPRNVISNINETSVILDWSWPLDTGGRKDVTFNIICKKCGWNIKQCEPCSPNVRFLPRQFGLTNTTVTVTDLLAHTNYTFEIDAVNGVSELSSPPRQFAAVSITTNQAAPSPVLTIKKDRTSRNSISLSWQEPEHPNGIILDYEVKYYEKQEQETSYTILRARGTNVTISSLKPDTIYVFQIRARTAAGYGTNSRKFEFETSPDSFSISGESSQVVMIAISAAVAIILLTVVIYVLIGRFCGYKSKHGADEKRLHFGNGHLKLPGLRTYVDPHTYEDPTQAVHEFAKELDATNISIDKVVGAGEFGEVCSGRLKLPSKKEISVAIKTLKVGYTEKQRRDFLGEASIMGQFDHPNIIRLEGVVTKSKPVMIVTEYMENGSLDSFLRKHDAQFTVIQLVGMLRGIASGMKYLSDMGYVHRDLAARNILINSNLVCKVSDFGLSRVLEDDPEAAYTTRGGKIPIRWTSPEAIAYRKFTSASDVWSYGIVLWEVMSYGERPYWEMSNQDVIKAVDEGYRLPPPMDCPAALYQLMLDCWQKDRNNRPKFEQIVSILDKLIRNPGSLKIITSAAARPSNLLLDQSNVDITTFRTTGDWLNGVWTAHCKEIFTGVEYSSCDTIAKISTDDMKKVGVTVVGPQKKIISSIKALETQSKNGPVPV

ERBB4 = ERBB4 (Homo sapiens, UniProt Q15303)
LIMK2 = LIMK2 (Homo sapiens, UniProt P53671)
MET = MET (Homo sapiens, UniProt P08581)
PIM1 = PIM1 (Homo sapiens, UniProt P11309)
RET(V804L) = RET(V804L) (Homo sapiens, UniProt P07949, V804L)
[1] = molecular target: T3, RPS6KA4(Kin.Dom.2-C-terminal) (Homo sapiens, UniProt O75676)
T3 construct: Kin.Dom.2-C-terminal

SRPK1 = SRPK1 (Homo sapiens, UniProt Q96SB4)
WEE2 = WEE2 (Homo sapiens, UniProt P0C1S8)
YANK3 = molecular target: T4, YANK3 (Homo sapiens, UniProt Q86UX6)
T4 construct: gene STK32C

[2] = read-out: Niraparib (MK-4827) / %Ctrl @ 10000nM
[3] = read-out: Olaparib / %Ctrl @ 10000nM
[4] = read-out: Rucaparib / %Ctrl @ 10000nM, binding competition, % of control
[5] = read-out: Talazoparib (BMN 673) / %Ctrl @ 10000nM

T3 sequence (O75676 whole entry): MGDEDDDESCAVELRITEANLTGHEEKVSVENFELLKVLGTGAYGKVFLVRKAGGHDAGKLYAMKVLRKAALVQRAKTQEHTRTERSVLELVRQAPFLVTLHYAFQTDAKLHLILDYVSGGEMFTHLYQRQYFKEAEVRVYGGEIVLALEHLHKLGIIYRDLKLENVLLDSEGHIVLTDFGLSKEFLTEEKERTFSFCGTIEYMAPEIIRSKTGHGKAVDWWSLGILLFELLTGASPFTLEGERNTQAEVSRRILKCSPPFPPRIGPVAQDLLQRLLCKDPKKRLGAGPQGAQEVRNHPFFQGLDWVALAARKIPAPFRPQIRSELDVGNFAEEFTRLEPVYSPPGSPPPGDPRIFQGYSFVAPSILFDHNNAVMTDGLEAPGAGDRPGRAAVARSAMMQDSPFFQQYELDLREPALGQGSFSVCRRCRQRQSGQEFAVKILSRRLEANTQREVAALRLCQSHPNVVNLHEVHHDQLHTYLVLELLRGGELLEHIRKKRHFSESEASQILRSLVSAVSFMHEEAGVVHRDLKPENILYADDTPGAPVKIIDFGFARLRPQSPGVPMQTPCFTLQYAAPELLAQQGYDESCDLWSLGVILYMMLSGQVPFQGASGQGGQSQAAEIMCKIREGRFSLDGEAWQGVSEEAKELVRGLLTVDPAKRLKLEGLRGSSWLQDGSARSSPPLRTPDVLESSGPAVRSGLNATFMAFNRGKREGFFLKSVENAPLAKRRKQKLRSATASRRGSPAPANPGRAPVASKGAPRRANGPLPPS
LIMK2, sequence (P53671 whole entry): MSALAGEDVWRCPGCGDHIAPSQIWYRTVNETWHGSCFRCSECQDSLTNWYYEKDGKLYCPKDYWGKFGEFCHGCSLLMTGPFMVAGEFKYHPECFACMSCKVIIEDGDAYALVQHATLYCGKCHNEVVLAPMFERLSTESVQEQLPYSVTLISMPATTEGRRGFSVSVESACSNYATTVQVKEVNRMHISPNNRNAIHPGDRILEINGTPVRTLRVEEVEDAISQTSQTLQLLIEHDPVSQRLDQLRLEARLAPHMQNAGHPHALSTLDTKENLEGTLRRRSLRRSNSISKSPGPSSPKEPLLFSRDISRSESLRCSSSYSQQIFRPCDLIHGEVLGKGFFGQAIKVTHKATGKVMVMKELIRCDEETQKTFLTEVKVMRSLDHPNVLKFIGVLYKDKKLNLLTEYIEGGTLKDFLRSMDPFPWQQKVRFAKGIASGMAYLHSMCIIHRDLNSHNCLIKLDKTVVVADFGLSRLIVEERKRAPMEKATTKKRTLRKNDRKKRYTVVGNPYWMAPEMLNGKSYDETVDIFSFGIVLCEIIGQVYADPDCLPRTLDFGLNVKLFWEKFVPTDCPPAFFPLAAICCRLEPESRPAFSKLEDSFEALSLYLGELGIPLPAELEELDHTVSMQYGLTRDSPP
SRPK1, sequence (Q96SB4 whole entry): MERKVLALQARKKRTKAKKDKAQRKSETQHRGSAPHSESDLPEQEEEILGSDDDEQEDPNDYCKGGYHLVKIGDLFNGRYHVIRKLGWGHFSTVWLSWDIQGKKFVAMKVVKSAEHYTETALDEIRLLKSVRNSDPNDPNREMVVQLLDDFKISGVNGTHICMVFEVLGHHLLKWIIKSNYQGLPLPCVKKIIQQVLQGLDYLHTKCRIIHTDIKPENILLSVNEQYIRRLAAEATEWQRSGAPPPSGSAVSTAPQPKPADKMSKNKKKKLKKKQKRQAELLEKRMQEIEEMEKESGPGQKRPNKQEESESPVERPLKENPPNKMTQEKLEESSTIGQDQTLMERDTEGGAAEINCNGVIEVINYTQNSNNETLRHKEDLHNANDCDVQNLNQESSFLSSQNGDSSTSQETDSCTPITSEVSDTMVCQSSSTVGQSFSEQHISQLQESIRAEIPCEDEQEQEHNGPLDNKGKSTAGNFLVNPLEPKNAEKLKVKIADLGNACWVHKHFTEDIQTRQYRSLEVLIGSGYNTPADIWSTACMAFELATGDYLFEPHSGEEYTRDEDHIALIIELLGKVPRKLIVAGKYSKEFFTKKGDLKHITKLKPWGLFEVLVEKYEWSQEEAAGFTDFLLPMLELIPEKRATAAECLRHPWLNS
T4 sequence (Q86UX6 whole entry): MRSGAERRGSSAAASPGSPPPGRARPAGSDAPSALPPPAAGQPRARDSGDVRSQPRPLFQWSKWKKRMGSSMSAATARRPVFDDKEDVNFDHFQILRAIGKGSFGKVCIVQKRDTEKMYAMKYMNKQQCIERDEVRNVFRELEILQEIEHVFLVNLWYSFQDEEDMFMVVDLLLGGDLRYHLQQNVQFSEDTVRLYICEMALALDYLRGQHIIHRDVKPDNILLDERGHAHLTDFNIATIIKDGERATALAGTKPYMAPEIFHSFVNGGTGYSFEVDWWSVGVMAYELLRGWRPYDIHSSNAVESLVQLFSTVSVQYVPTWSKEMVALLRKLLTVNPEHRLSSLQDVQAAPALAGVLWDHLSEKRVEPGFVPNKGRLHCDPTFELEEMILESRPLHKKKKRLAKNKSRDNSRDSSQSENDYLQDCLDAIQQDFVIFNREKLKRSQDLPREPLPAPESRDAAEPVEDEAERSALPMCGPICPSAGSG
WEE2, sequence (P0C1S8 whole entry): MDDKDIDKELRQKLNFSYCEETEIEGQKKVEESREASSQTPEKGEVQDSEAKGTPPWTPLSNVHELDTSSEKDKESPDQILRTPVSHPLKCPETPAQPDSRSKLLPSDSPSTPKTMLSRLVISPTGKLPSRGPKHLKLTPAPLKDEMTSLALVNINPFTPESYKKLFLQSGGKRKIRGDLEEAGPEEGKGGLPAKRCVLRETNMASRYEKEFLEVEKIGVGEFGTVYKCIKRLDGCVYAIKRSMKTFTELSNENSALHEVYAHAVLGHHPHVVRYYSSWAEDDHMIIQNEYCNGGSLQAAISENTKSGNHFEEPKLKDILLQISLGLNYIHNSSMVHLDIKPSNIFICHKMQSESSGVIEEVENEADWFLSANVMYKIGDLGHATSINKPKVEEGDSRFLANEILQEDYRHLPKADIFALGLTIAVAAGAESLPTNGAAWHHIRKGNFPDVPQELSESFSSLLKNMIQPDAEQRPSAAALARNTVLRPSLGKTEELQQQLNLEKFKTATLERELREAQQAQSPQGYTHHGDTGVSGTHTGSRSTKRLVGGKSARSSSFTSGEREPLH
ERBB4, sequence (Q15303 whole entry): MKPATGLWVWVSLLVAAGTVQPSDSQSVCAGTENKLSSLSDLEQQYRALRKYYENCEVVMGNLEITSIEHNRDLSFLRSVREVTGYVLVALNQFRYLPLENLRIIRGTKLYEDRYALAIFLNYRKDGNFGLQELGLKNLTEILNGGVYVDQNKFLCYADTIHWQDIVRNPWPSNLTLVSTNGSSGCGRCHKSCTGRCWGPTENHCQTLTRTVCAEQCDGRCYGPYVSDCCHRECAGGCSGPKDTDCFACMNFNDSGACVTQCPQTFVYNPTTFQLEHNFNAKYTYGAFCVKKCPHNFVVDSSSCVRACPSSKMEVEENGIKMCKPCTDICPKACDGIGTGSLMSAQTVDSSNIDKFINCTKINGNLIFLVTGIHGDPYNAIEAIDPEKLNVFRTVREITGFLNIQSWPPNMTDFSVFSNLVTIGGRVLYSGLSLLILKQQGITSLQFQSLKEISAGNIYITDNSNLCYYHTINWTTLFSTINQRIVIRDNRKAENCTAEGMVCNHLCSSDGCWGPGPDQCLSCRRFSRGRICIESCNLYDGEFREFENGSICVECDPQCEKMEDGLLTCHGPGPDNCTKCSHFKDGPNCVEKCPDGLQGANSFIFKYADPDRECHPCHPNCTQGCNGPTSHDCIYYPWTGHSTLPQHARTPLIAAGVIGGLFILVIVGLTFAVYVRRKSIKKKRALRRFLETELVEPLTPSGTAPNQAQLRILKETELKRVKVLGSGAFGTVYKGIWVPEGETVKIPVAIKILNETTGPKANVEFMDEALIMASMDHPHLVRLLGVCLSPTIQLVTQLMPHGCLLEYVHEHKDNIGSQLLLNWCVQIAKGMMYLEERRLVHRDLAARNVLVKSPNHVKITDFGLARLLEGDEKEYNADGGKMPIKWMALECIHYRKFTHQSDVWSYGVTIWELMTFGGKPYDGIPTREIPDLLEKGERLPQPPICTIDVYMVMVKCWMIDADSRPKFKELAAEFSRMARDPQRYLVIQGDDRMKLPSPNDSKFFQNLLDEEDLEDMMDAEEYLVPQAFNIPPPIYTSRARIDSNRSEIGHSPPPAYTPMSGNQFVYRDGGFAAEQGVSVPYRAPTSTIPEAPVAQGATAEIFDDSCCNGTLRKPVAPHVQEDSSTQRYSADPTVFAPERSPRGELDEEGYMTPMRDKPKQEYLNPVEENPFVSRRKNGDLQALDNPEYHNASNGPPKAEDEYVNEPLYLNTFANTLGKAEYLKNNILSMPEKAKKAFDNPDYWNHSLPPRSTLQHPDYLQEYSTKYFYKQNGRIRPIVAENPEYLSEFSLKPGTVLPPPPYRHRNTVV
PIM1, sequence (P11309 whole entry): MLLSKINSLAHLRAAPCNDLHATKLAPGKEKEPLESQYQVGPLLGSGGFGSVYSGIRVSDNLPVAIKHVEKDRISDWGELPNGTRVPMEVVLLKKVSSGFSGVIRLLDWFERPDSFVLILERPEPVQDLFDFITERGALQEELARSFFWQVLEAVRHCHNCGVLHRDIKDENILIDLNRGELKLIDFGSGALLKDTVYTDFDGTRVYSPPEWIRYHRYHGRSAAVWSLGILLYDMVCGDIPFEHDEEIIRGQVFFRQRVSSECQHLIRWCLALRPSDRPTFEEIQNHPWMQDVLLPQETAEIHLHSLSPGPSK

SMILES: NC(=O)c1cccc2cn(-c3ccc([C@@H]4CCCNC4)cc3)nc12 [Niraparib]
- percent of control binding at 10 µM (BMPR1B; [2]): 87%
- percent of control binding at 10 µM (BRSK1; [2]): 92%
- percent of control binding at 10 µM (EPHA3; [2]): 81%
- percent of control binding at 10 µM (ERBB4; [2]): 99%
- percent of control binding at 10 µM (LIMK2; [2]): 91%
- percent of control binding at 10 µM (MET; [2]): 92%
- percent of control binding at 10 µM (PIM1; [2]): 18%
- percent of control binding at 10 µM (RET(V804L); [2]): 92%
- percent of control binding at 10 µM [1, 2]: 80%
- percent of control binding at 10 µM (SRPK1; [2]): 77%
- percent of control binding at 10 µM (WEE2; [2]): 100%
- percent of control binding at 10 µM (YANK3; [2]): 86%

SMILES: O=C(c1cc(Cc2n[nH]c(=O)c3ccccc23)ccc1F)N1CCN(C(=O)C2CC2)CC1 [Olaparib]
- percent of control binding at 10 µM (BMPR1B; [3]): 81%
- percent of control binding at 10 µM (BRSK1; [3]): 91%
- percent of control binding at 10 µM (EPHA3; [3]): 100%
- percent of control binding at 10 µM (ERBB4; [3]): 89%
- percent of control binding at 10 µM (LIMK2; [3]): 100%
- percent of control binding at 10 µM (MET; [3]): 91%
- percent of control binding at 10 µM (PIM1; [3]): 96%
- percent of control binding at 10 µM (RET(V804L); [3]): 100%
- percent of control binding at 10 µM [1, 3]: 92%
- percent of control binding at 10 µM (SRPK1; [3]): 98%
- percent of control binding at 10 µM (WEE2; [3]): 100%
- percent of control binding at 10 µM (YANK3; [3]): 83%

SMILES: CNCc1ccc(-c2[nH]c3cc(F)cc4c3c2CCNC4=O)cc1 [Rucaparib]
- percent of control binding at 10 µM (BMPR1B; [4]): 80%
- percent of control binding at 10 µM (BRSK1; [4]): 74%
- percent of control binding at 10 µM (EPHA3; [4]): 88%
- percent of control binding at 10 µM (ERBB4; [4]): 89%
- percent of control binding at 10 µM (LIMK2; [4]): 96%
- percent of control binding at 10 µM (MET; [4]): 92%
- percent of control binding at 10 µM (PIM1; [4]): 2.8%
- percent of control binding at 10 µM (RET(V804L); [4]): 95%
- percent of control binding at 10 µM [1, 4]: 91%
- percent of control binding at 10 µM (SRPK1; [4]): 97%
- percent of control binding at 10 µM (WEE2; [4]): 100%
- percent of control binding at 10 µM (YANK3; [4]): 72%

SMILES: Cn1ncnc1[C@H]1c2n[nH]c(=O)c3cc(F)cc(c23)N[C@@H]1c1ccc(F)cc1 [Talazoparib]
- percent of control binding at 10 µM (BMPR1B; [5]): 100%
- percent of control binding at 10 µM (BRSK1; [5]): 100%
- percent of control binding at 10 µM (EPHA3; [5]): 100%
- percent of control binding at 10 µM (ERBB4; [5]): 91%
- percent of control binding at 10 µM (LIMK2; [5]): 100%
- percent of control binding at 10 µM (MET; [5]): 99%
- percent of control binding at 10 µM (PIM1; [5]): 95%
- percent of control binding at 10 µM (RET(V804L); [5]): 96%
- percent of control binding at 10 µM [1, 5]: 100%
- percent of control binding at 10 µM (SRPK1; [5]): 100%
- percent of control binding at 10 µM (WEE2; [5]): 100%
- percent of control binding at 10 µM (YANK3; [5]): 85%
